Patent publication US20100204202A1, “DRUG FOR ALLEVIATING MOTOR COMPLICATIONS OR PSYCHIATRIC SYMPTOMS OF PARKINSON'S DISEASE” (Asubio Pharma Co., Ltd., priority 2007, published 2010)
Counter-ions that a name gives are not always drawn.

How the values were obtained:
rats [1] = assay: Forced swimming method (anti-depressive action); assay type: in vivo, rat
Excerpt: For the test, Crl: CD(SD) male rats supplied by Charles River Japan were used (6 weeks old at start of test). For the forced swimming test, the method of the improved type reported by Lucki et al. (Lucki I., “The forced swimming test as a model for core and component behavioral effects of antidepressant drugs”, Behavioural Pharmacology, 1997, 8, p. 523-532; Cryan J. F. et al., “Assessing antidepressant activity in rodents: recent developments and future needs”, TRENDS in Pharmacological Sciences, 2002, 23, p. 238-245) was used. On day 1, each rat was placed in a cylinder filled with water (height 45 cm×diameter 30 cm, water depth 30 cm, water temperature 23° C., water depth set to depth by which back legs and tail of rat will not touch the bottom). The rat was taken out after 15 minutes. At this time, the immobility period (seconds) of minutes 10-15 (5 minutes) was recorded. Based on the results, the rats were assigned to five groups so that there would be no difference among the groups. On day 2, each rat was placed in a cylinder filled with water the same as day 1 and the immobility period (seconds), swimming behavior period (seconds), and climbing behavior period (seconds) of minutes 0-5 (5 minutes) were measured. Note that the immobility period was defined as the minimum extent of movement for the rat to hold its head above the water, the swimming behavior as the swimming behavior circling around the inside of the cylinder in the horizontal direction, and the climbing behavior as the climbing behavior moving the forelimbs in the vertical direction along the cylinder walls to try to climb them. The tested substance was intraperitoneally administered 15 minutes after the end of swimming on day 1, and 4 hours and 30 minutes before swimming on day 2. Further, for the amount of locomotor activity, a measuring system (shape 48.8×48.8×30 cm, vertical 8 fractions, horizontal 8 fractions, for total of 64 fractions, Biomedica) set in a blacked out soundproof box was used to record the amount of locomotor activity of the rats at minutes 0-15 (15 minutes). Note that the dosages and timings of administration of the tested substances were set in the same way as the forced swimming test and the substance were intraperitoneally administered 24 hours, 4 hours, and 30 minutes before measurement of the amount of locomotor activity.

[2] = tested on: Parkinson's disease model rats; assay: Rate of incidence of rotational behavior induced by levodopa dosage (response failure); assay type: in vivo, rat; conditions: sustained subcutaneous administration (osmotic pump) from week 6 of repeated levodopa, 2 weeks
Protocol: Therefore, the inventors prepared Parkinson's disease model rats in the same way as in Example 4 and treated the rats by repeated doses of levodopa (twice a day, Monday to Friday) for 7 weeks. The presence or absence of the rotational behavior of each rat was recorded at approximately 1 hour after the administration of levodopa during the repeated dosing period. […] Therefore, from weeks 1 to 5 of repeated doses of levodopa, the inventors recorded the presence of any rotational behavior of the rats each time, then studied the effects of the tested substances from week 6 of repeated doses of levodopa by implanting an Aizet® osmotic pump filled with SUN N4057 or physiological saline (2ML4, volume 2 ml, flow rate 2.5 μl/hr) subcutaneously at the rats. In the 2 weeks after that, the inventors similarly continued to record the presence of any rotational behavior of the rats 1 hour after levodopa administration.

rats [3] = assay: Amount of locomotor activity; assay type: in vivo, rat; conditions: 0.3, 1, and 3 mg/kg i.p.; minutes 0-15
Excerpt: For the test, Crl: CD(SD) male rats supplied by Charles River Japan were used (6 weeks old at start of test). For the forced swimming test, the method of the improved type reported by Lucki et al. (Lucki I., “The forced swimming test as a model for core and component behavioral effects of antidepressant drugs”, Behavioural Pharmacology, 1997, 8, p. 523-532; Cryan J. F. et al., “Assessing antidepressant activity in rodents: recent developments and future needs”, TRENDS in Pharmacological Sciences, 2002, 23, p. 238-245) was used. On day 1, each rat was placed in a cylinder filled with water (height 45 cm×diameter 30 cm, water depth 30 cm, water temperature 23° C., water depth set to depth by which back legs and tail of rat will not touch the bottom). The rat was taken out after 15 minutes. At this time, the immobility period (seconds) of minutes 10-15 (5 minutes) was recorded. Based on the results, the rats were assigned to five groups so that there would be no difference among the groups. On day 2, each rat was placed in a cylinder filled with water the same as day 1 and the immobility period (seconds), swimming behavior period (seconds), and climbing behavior period (seconds) of minutes 0-5 (5 minutes) were measured. […]

[4] = Solubility (choice of solvent); assay type: physicochemical; conditions: physiological saline
Protocol: Note that the SUN […] was subcutaneously administered right before levodopa administration, the sarizotan was orally administered about 20 minutes before levodopa dosage in accordance with above-mentioned known reports (Bibbiani F. et al., Neurology, 2001, 57, p. 1829-1834), and the Example Compound 4 of Japanese Patent Publication No. 2005-298402A was subcutaneously administered about 30 minutes before levodopa dosage in accordance with the above-mentioned Japanese Patent Publication No. 2005-298402A. Further, for the solvent, for SUN […] and Example Compound 4 of Japanese Patent Publication No. 2005-298402A, physiological saline was used.

Compound	immobility period (rats [1]; 0.3, 1 and 3 mg/kg i.p., minutes 0-5 on day 2)	swimming behavior period (rats [1]; 1, 3 mg/kg i.p.)	rate of incidence of rotational behavior [2]	amount of locomotor activity (rats [3])	solubility (in words) [4]
O=C1c2ccccc2OC=C(Cl)N1CCCCN1CC=C(c2ccccn2)CC1 [SUN N4057, 3-chloro-4,5-dihydro-4-{4-[4-(2-pyridyl)-1,2,3,6-tetrahydropyridin-1-yl]butyl}-1,4-benzoxazepin-5-one.dihydrochloride-dihydrate]	significant shortening of the immobility period	significant increase	action on recovery	no significant change	–
Cl.Cl.Fc1ccc(-c2cncc(CNC[C@H]3CCc4ccccc4O3)c2)cc1 [Sarizotan, 1-[(2R)-3,4-dihydro-2H-chromen-2-yl]-N-{[5-(4-fluorophenyl)pyridin-3-yl]methyl}methanamine dihydrochloride]	–	–	–	–	poor in solubility
